Assay results published in ChEMBL document CHEMBL1681651, “A broad spectrum anticancer nucleoside with selective toxicity against human colon cells in vitro” (2011).

Columns and labels:
Assay type in all cases: functional
[1] = test system: HT-29; test: Growth inhibition of human HT-29 cells assessed as cell growth at 10 uM after 48 hrs by SRB assay; conditions: HT-29, 48 h, read-out: Activity
[2] = test system: Malme-3M; test: Growth inhibition of human MALME-3M cells assessed as cell growth at 10 uM after 48 hrs by SRB assay; conditions: read-out: Activity
[3] = test system: SK-OV-3; test: Growth inhibition of human SKOV3 cells assessed as cell growth at 10 uM after 48 hrs by SRB assay; conditions: SK-OV-3, 48 h, read-out: Activity
[4] = test system: HOP-62; test: Growth inhibition of human HOP62 cells assessed as cell growth at 10 uM after 48 hrs by SRB assay; conditions: HOP-62, 48 h, read-out: Activity
[5] = test system: DU-145; test: Growth inhibition of human DU145 cells assessed as cell growth at 10 uM after 48 hrs by SRB assay; conditions: DU-145, 48 h, read-out: Activity
[6] = test system: MDA-MB-231; test: Growth inhibition of human MDA-MB-231 cells assessed as cell growth at 1 uM after 48 hrs by SRB assay; conditions: MDA-MB-231, 48 h, read-out: Activity
[7] = test system: COLO 205; test: Growth inhibition of human COLO205 cells assessed as cell growth at 0.1 uM after 48 hrs by SRB assay; conditions: COLO 205, 48 h, read-out: Activity
[8] = test system: SNB-75; test: Growth inhibition of human SNB75 cells assessed as cell growth at 1 mM after 48 hrs by SRB assay; conditions: SNB-75, 48 h, read-out: Activity
[9] = test system: HCC 2998; test: Growth inhibition of human HCC2998 cells assessed as cell growth at 0.1 uM after 48 hrs by SRB assay; conditions: HCC 2998, 48 h, read-out: Activity
[10] = test system: CCRF-CEM; test: Growth inhibition of human CCRF-CEM cells assessed as cell growth at 10 uM after 48 hrs by SRB assay; conditions: read-out: Activity
[11] = test system: SN12C; test: Growth inhibition of human SN12C cells assessed as cell growth at 1 mM after 48 hrs by SRB assay; conditions: read-out: Activity
[12] = test system: OVCAR-5; test: Growth inhibition of human OVCAR5 cells assessed as cell growth at 0.1 uM after 48 hrs by SRB assay; conditions: OVCAR-5, 48 h, read-out: Activity
[13] = test system: NCI/ADR-RES; test: Growth inhibition of human NCI/ADR-RES cells assessed as cell growth at 100 uM after 48 hrs by SRB assay; conditions: read-out: Activity
[14] = test system: SK-OV-3; test: Growth inhibition of human SKOV3 cells after 48 hrs by […] growth inhibition assay; conditions: SK-OV-3, 48 h
[15] = test system: HOP-62; test: Growth inhibition of human HOP62 cells assessed as cell growth at 1 uM after 48 hrs by SRB assay; conditions: HOP-62, 48 h, read-out: Activity
[16] = test system: NCI-H23; test: Growth inhibition of human NCI-H23 cells assessed as cell growth at 0.1 uM after 48 hrs by SRB assay; conditions: NCI-H23, 48 h, read-out: Activity
[17] = test system: SK-OV-3; test: Growth inhibition of human SKOV3 cells assessed as cell growth at 1 uM after 48 hrs by SRB assay; conditions: SK-OV-3, 48 h, read-out: Activity
[18] = test system: U-251; test: Growth inhibition of human U251 cells assessed as cell growth at 0.1 uM after 48 hrs by SRB assay; conditions: U-251, 48 h, read-out: Activity
[19] = test system: OVCAR-8; test: Growth inhibition of human OVCAR8 cells assessed as cell growth at 1 mM after 48 hrs by SRB assay; conditions: OVCAR-8, 48 h, read-out: Activity
[20] = test system: COLO 205; test: Growth inhibition of human COLO205 cells assessed as cell growth at 1 mM after 48 hrs by SRB assay; conditions: COLO 205, 48 h, read-out: Activity
[21] = test system: HOP-92; test: Growth inhibition of human HOP92 cells assessed as cell growth at 100 uM after 48 hrs by SRB assay; conditions: HOP-92, 48 h, read-out: Activity
[22] = test system: NCI-H522; test: Growth inhibition of human NCI-H522 cells assessed as cell growth at 100 uM after 48 hrs by SRB assay; conditions: NCI-H522, 48 h, read-out: Activity
[23] = test system: NCI-H23; test: Growth inhibition of human NCI-H23 cells assessed as cell growth at 100 uM after 48 hrs by SRB assay; conditions: NCI-H23, 48 h, read-out: Activity
[24] = test system: NCI-H226; test: Growth inhibition of human NCI-H226 cells after 48 hrs by […] growth inhibition assay; conditions: NCI-H226, 48 h
[25] = test system: T47D; test: Growth inhibition of human T47D cells assessed as cell growth at 1 mM after 48 hrs by SRB assay; conditions: read-out: Activity
[26] = test system: MDA-MB-435; test: Growth inhibition of human MDA-MB-435 cells assessed as cell growth at 100 uM after 48 hrs by SRB assay; conditions: MDA-MB-435, 48 h, read-out: Activity
[27] = test system: 786-0; test: Growth inhibition of human 786-0 cells assessed as cell growth at 0.1 uM after 48 hrs by SRB assay; conditions: 786-0, 48 h, read-out: Activity
[28] = test system: HT-29; test: Growth inhibition of human HT-29 cells after 48 hrs by […] growth inhibition assay; conditions: HT-29, 48 h
[29] = test system: CAKI-1; test: Growth inhibition of human Caki1 cells after 48 hrs by […] growth inhibition assay; conditions: CAKI-1, 48 h
[30] = test system: SNB-75; test: Growth inhibition of human SNB75 cells assessed as cell growth at 100 uM after 48 hrs by SRB assay; conditions: SNB-75, 48 h, read-out: Activity
[31] = test system: A498; test: Growth inhibition of human A498 cells assessed as cell growth at 1 mM after 48 hrs by SRB assay; conditions: A498, 48 h, read-out: Activity
[32] = test system: MDA-MB-435; test: Growth inhibition of human MDA-MB-435 cells assessed as cell growth at 1 uM after 48 hrs by SRB assay; conditions: MDA-MB-435, 48 h, read-out: Activity
[33] = test system: IGROV-1; test: Growth inhibition of human IGROV1 cells assessed as cell growth at 100 uM after 48 hrs by SRB assay; conditions: IGROV-1, 48 h, read-out: Activity
[34] = test system: NCI-H460; test: Growth inhibition of human NCI-H460 cells assessed as cell growth at 100 uM after 48 hrs by SRB assay; conditions: NCI-H460, 48 h, read-out: Activity
[35] = test system: SK-OV-3; test: Growth inhibition of human SKOV3 cells assessed as cell growth at 0.1 uM after 48 hrs by SRB assay; conditions: SK-OV-3, 48 h, read-out: Activity
[36] = read-out: LC50 (the source's name)
[37] = read-out: pLC50 (the source's name) (converted)

`CNC(=O)OC[C@H]1O[C@@H](n2cnc3c(NC(=O)Nc4ccccc4)ncnc32)[C@H](O[Si](C)(C)C(C)(C)C)[C@@H]1O[Si](C)(C)C(C)(C)C` gave a growth at 10 µM [1] of 81.3%, a growth at 10 µM [2] of 114% and a growth at 10 µM [3] of 106%. The growth at 10 µM [4] was 104% and the growth at 10 µM [5] was 106%.
`CNC(=O)NC[C@H]1O[C@@H](n2cnc3c(NC(=O)Nc4ccccc4)ncnc32)[C@H](O[Si](C)(C)C(C)(C)C)[C@@H]1O[Si](C)(C)C(C)(C)C` gave a growth at 10 µM [1] of 107%, a growth at 1 µM [6] of 109% and a growth at 10 µM [2] of 96%. It also gave a growth at 0.1 µM [7] of 109%, a growth at 1000 µM [8] of -12% and a growth at 0.1 µM [9] of 100%. The growth at 10 µM [10] was 101%, the growth at 1000 µM [11] was -90% and the growth at 0.1 µM [12] was 96%. It also gave a growth at 100 µM [13] of 10%, a GI50 ([14]; read-out: GI50) of 6.88 µM and a CC50 [14, 36] greater than 100 µM. The TGI ([14]; read-out: TGI) was greater than 100 µM, the GI50 ([14]; read-out: pGI50 (converted)) was 6.92 µM and the CC50 [14, 37] was greater than 100 µM. It also gave a TGI ([14]; read-out: pTGI) greater than 100 µM, a growth at 1 µM [15] of 108% and a growth at 0.1 µM [16] of 100%. For the same compound, the growth at 1 µM [17] was 113%, the growth at 0.1 µM [18] was 102% and the growth at 10 µM [3] was 107%. The growth at 1000 µM [19] was -9%, the growth at 1000 µM [20] was -94% and the growth at 100 µM [21] was -28%. It also gave a growth at 10 µM [4] of 105%, a growth at 10 µM [5] of 109% and a growth at 100 µM [22] of -15%. The growth at 100 µM [23] was -5%, the GI50 ([24]; read-out: GI50) was 3.1 µM and the CC50 [24, 36] was greater than 100 µM. For the same compound, the TGI ([24]; read-out: TGI) was 8.63 µM, the GI50 ([24]; read-out: pGI50 (converted)) was 3.09 µM and the CC50 [24, 37] was greater than 100 µM. It also gave a TGI ([24]; read-out: pTGI (converted)) of 8.71 µM, a growth at 1000 µM [25] of -32% and a growth at 100 µM [26] of 9%. It also gave a growth at 0.1 µM [27] of 108%, a GI50 ([28]; read-out: GI50) of 2.02 µM and a CC50 [28, 36] of 6.91 µM. It also gave a TGI ([28]; read-out: TGI) of 3.73 µM, a GI50 ([28]; read-out: pGI50 (converted)) of 2 µM and a CC50 [28, 37] of 6.92 µM. It also gave a TGI ([28]; read-out: pTGI (converted)) of 3.72 µM, a GI50 ([29]; read-out: GI50) of 2.7 µM and a CC50 [29, 36] greater than 100 µM. The TGI ([29]; read-out: TGI) was 7.93 µM, the GI50 ([29]; read-out: pGI50 (converted)) was 2.69 µM and the CC50 [29, 37] was greater than 100 µM. The TGI ([29]; read-out: pTGI (converted)) was 7.94 µM, the growth at 100 µM [30] was 14% and the growth at 1000 µM [31] was -76%. For the same compound, the growth at 1 µM [32] was 102%, the growth at 100 µM [33] was -12% and the growth at 100 µM [34] was -74%. For the same compound, the growth at 0.1 µM [35] was 108%.
For `CCOC(=O)C[C@H]1[C@@H](O[Si](C)(C)C(C)(C)C)[C@H](n2cnc3c(NC(=O)Nc4ccccc4)ncnc32)O[C@@H]1CNC(=O)NC`, the growth at 10 µM [1] was 104%, the growth at 1 µM [6] was 103% and the growth at 10 µM [2] was 92%. It also gave a growth at 0.1 µM [7] of 102%, a growth at 1000 µM [8] of 22% and a growth at 0.1 µM [9] of 101%. The growth at 10 µM [10] was 92%, the growth at 1000 µM [11] was 11% and the growth at 0.1 µM [12] was 104%. The growth at 100 µM [13] was 80%, the GI50 ([14]; read-out: GI50) was 21 µM and the CC50 [14, 36] was greater than 100 µM. It also gave a TGI ([14]; read-out: TGI) greater than 100 µM, a GI50 ([14]; read-out: pGI50 (converted)) of 20.9 µM and a CC50 [14, 37] greater than 100 µM. The TGI ([14]; read-out: pTGI) was greater than 100 µM, the growth at 1 µM [15] was 92% and the growth at 0.1 µM [16] was 101%. For the same compound, the growth at 1 µM [17] was 96%, the growth at 0.1 µM [18] was 98% and the growth at 10 µM [3] was 90%. It also gave a growth at 1000 µM [19] of -4%, a growth at 1000 µM [20] of 3% and a growth at 100 µM [21] of -32%. The growth at 10 µM [4] was 97%, the growth at 10 µM [5] was 110% and the growth at 100 µM [22] was 32%. For the same compound, the growth at 100 µM [23] was 65%, the GI50 ([24]; read-out: GI50) was greater than 100 µM and the CC50 [24, 36] was greater than 100 µM. For the same compound, the TGI ([24]; read-out: TGI) was greater than 100 µM, the GI50 ([24]; read-out: pGI50 (converted)) was greater than 100 µM and the CC50 [24, 37] was greater than 100 µM. The TGI ([24]; read-out: pTGI (converted)) was greater than 100 µM, the growth at 1000 µM [25] was 13% and the growth at 100 µM [26] was 40%. The growth at 0.1 µM [27] was 92%, the GI50 ([28]; read-out: GI50) was 4.2 µM and the CC50 [28, 36] was greater than 100 µM. For the same compound, the TGI ([28]; read-out: TGI) was greater than 100 µM, the GI50 ([28]; read-out: pGI50 (converted)) was 4.17 µM and the CC50 [28, 37] was greater than 100 µM. It also gave a TGI ([28]; read-out: pTGI (converted)) greater than 100 µM, a GI50 ([29]; read-out: GI50) of 29.7 µM and a CC50 [29, 36] greater than 100 µM. The TGI ([29]; read-out: TGI) was greater than 100 µM, the GI50 ([29]; read-out: pGI50 (converted)) was 29.5 µM and the CC50 [29, 37] was greater than 100 µM. The TGI ([29]; read-out: pTGI (converted)) was greater than 100 µM, the growth at 100 µM [30] was 32% and the growth at 1000 µM [31] was -41%. It also gave a growth at 1 µM [32] of 92%, a growth at 100 µM [33] of 20% and a growth at 100 µM [34] of 32%. It also gave a growth at 0.1 µM [35] of 96%.
